Peptide text beside a SMILES is read from it. * marks the point of attachment. DOTA = O=C(O)CN1CCN(CC(=O)O)CCN(CC(=O)*)CCN(CC(=O)O)CC1
Biological target: T1, CXCR4 (Homo sapiens, UniProt P61073)
T1 construct: Jurkat cells, which are naturally expressing high levels of CXCR4; host or cells: Jurkat, clone E6-1
Assay: Antibody-competition assay (anti-CXCR4 clone 12G5) on Ghost-CXCR4 cells
Assay type: binding
Details: competition with CXCR4 antibody clone 12G5, Ghost-CXCR4 cells, 4 °C, 2 h; mean ± SEM
Protocol: Binding of the DOTA-conjugated EPI-X4 derivatives to CXCR4 was assessed by an antibody-competition assay[26] using Ghost cells stably transfected with CXCR4, as well as on Jurkat cells, which are naturally expressing high levels of CXCR4. […] The buffer was removed and plates were precooled at 4 °C. Ligands were serially diluted in PBS. The antibody (clone 12G5, Allophycocyanin labeled, BD Pharmingen #555976) was diluted in PBS containing 1% FBS. The antibody was used at a fixed concentration close to its KD. 15 μL of compound and immediately afterward 15 μL of the antibody were added to the cells. Plates were incubated at 4 °C in the dark for 2 h allowing to establish an equilibrium binding. Cells were then washed twice with PBS containing 1% FBS and fixed with 2% paraformaldehyde. Antibody binding was analyzed by flow cytometry (FACS CytoFLEX; Beckman Coulter).

T1 sequence (P61073 whole entry): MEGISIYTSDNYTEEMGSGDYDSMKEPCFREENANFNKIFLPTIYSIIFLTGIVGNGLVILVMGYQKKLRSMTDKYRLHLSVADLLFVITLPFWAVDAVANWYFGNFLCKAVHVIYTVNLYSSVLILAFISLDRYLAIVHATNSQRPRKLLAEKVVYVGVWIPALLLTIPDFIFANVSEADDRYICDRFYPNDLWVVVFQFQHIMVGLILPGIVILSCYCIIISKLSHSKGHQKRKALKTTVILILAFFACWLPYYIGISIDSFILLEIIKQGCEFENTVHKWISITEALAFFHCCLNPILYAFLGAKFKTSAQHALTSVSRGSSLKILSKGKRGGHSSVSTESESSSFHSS

IC50: 122 ± 45 nM
SMILES: CC[C@H](C)[C@H](N)C(=O)N[C@@H](CC(C)C)C(=O)N[C@@H](CCCNC(=N)N)C(=O)N[C@@H](Cc1c[nH]c2ccccc12)C(=O)N[C@@H](CO)C(=O)N[C@@H](CCCNC(=N)N)C(=O)N[C@@H](CCCCN)C(=O)N[C@@H](CC(C)C)C(=O)N1CCC[C@H]1C(=O)N[C@@H](CO)C(=O)N[C@H](C(=O)N[C@@H](CO)C(=O)N[C@@H](CCCCNC(=O)CN1CCN(CC(=O)O)CCN(CC(=O)O)CCN(CC(=O)O)CC1)C(=O)O)C(C)C [^natLu-2, metal not drawn] (H-ILRWSRKLPSVSK(DOTA)-OH; N-terminus and C-terminus assumed)
